Measurements reported in patent US20240368668A1, “SUBSTRATES AND BIOMARKERS OF ADAMTS7” (The Broad Institute, Inc., priority 2021, published 2024).

Test system: mouse ADAMTS7
Assay: TMT10 TAILS N-terminomics, HUVEC experiment (process replicates, trypsin/AspN digest)
Format: cell-based, human
Settings: for logFC.mWT.over.mEQ: HUVEC TAILS HC, log fold change of N-terminal peptide, Ad-mADAMTS7 WT over EQ; for HUVEC logFC.mWT.over.mEQ: HUVEC experiment, log fold change, mouse ADAMTS7 WT over EQ
Excerpt: ADAMTS7 Expression, Cell Culture and Preparation of the Secreted Proteins—Full-length mouse Adamts7 1-1857 (Uniprot Q68SA9, WT or E373Q catalytic mutant) with a carboxyl terminal 3xFLAG tag was used to generate custom adenoviruses as previously described. Adeno-CMV-Luciferase (Ad-Luc) from Vector Biolabs was used as a negative control. Human Coronary Artery Smooth Muscle Cells (HCA-SMC) were obtained from Lonza and expanded in Lonza SmGM-2 media in 15 cm tissue culture plates. Twenty-four hours before media collection, near confluent plates were transduced with 50 MOI adenovirus and switched to Lonza Basal SM media with volumes of 20 ml per 15 cm plate. Expression of the Flag tagged ADAMTS7 was confirmed from the media using western blot and detected using the anti-Flag M2-HRP antibody (Sigma, A8592). Collected media was processed by adding protease inhibitors (1 mM EDTA and 1 mM PMSF) and clarified by 500 g×5 min spin at 4 C to pellet cell debris. Cell media supernatants were then passed through a 0.22 um filter and kept chilled. Processed media was then concentrated 50-100× using 3 kDa Centricon Plus-70 filter unit, spun at 3,500 g×60 min at 4 C. Approximately 10% of the processed, concentrated media was set aside for total secretome proteolytic analysis. The remaining 90% of the processed, concentrated media was buffer exchanged into 50 mM HEPES pH 8.0, 150 mM NaCl (2×50 ml) using the 3 kDa Centricon Plus-70 filter unit and concentrated to >2 mg/ml to serve as input for the TAILS experiment. Secretome and TAILS input samples were stored at −80° C.
For the first experiment, referred to as SMC1, 120 ml of media from 6×15 cm dishes was pooled from each condition (Luc, WT, EQ) and processed to produce three separate inputs for the TAILS experiment. Luc, WT and EQ inputs from the SMC1 experiment were each divided into triplicate 400 ug samples to generate technical replicate TAILS data. For the second experiment, referred to as SMC2, media was processed separately in triplicate for each condition (Luc1, Luc2, Luc3, WT1, WT2, WT3, EQ1, EQ2, EQ3) using 60 ml of media from 3×15 cm dishes for each process replicate. Inputs from the SMC2 experiment used process replicates of 300 ug each to generate TAILS data. The third experiment used input from cultured Human umbilical vein endothelial cells (HUVEC) from Lifeline Cell Technology grown in VascuLife Media and transduced in Lifeline Basal EC (+bFGF2 10 ng/ml). The HUVEC experiment used the same strategy as the SMC2 experiment, with 40 ml of media from 2×15 cm dishes for each process replicate and used 200 ug each to generate TAILS data. Inputs for process replicate experiments were restricted to the lowest concentration from the 9 parallel samples for SMC2 or HUVEC.
TMT10 isotopic labeling and negative selection of non-labeled peptides-Sample preparation was performed based on the TAILS protocol from the Overall lab with some modifications. From a single experiment, nine parallel protein samples in 50 mM HEPES pH 8.0, 150 mM NaCl were separately denatured with guanidinium chloride (Sigma, G4505) to reach a final concentration of 2.5M guanidinium chloride and 250 mM HEPES and incubated at 65° C. for 15 min. Reduction was achieved through addition of tris(2-carboxylethyl) phosphine (TCEP) at a final concentration of […] and incubated at 65° C. for 45 min. Alkylation reaction was performed with addition of iodoacetamide (IAA, Sigma, A3221) to a final concentration of 10 mM IAA for 15 min at room temperature in the dark. Following denaturation, reduction and alkylation steps, ten percent of each of the nine parallel protein samples was removed and combined to serve as a pooled reference. Isobaric tags were added to free amine groups using the TMT10plex Isobaric Mass Tagging Kit (ThermoFisher, 90113) with TMT channels randomly assigned to the nine samples and TMT 131 assigned to the pooled reference. […]

Row | Substance | logFC.mWT.over.mEQ | HUVEC logFC.mWT.over.mEQ
1 | AEBP1_37 (FLEGFLSELEPEPR; listed as Homo sapiens) | 4.34 | 
2 | EFEMP1_124 (AVAGPEMQTGR; listed as Homo sapiens) | 3.31 | 
3 | EFEMP1_125 (VAGPEMQTGR; listed as Homo sapiens) |  | 2.45
4 | FBN1_29 (LEAGNVKETR; listed as Homo sapiens) | 3.91 | 
5 | FLNA_1285 (LTQTGGPHVKAR; listed as Homo sapiens) | 3.81 | 
6 | FN1_36 (MVQPQSPVAVSQSKPGCYDNGKHYQINQQWER; listed as Homo sapiens) | 3.45 | 
7 | FN1_40 (QSPVAVSQSKPGCYDNGKHYQINQQWER; listed as Homo sapiens) | 2.96 | 
8 | FN1_886 (NQESTPVVIQQETTGTPR; listed as Homo sapiens) | 2.04 | 3.68
9 | FN1_1143 (LTPGVEYVYTIQVLR; listed as Homo sapiens) | 3.68 | 
10 | FN1_1656 (SSSPVTGYR; listed as Homo sapiens) | 1.63 | 
11 | HSPG2_275 (LLPGSVR; listed as Homo sapiens) |  | 0.77
12 | HSPG2_2331 (ANLAYPAGSTQPIR; listed as Homo sapiens) | 1.73 | 
13 | IGFBP7_101 (AAGGPGVSGVCVCKSR; listed as Homo sapiens) | 1.89 | 
14 | LOXL2_37 (FQQPAPEYHQPQAPANVAKIQLR; listed as Homo sapiens) | 3.48 | 
15 | LOX_124 (WFQAGYSTSR; listed as Homo sapiens) | 3.35 | 
16 | LTBP1_393 (LTATNFR; listed as Homo sapiens) | 3.33 | 
